Assay results: patent US20030175350A1, “Enteric preparations containing physiologically active peptides” (priority 2000, published 2003)

What was measured:
[1] = Absorbability of compound (1) in cynomolgus monkey by oral administration of tablets; type: in vivo
Text: Blood was periodically collected, plasma was isolated, and then plasma concentration of unchanged was quantified with HPLC.

[2] = rat, in vivo, po; cited from earlier work

SMILES | Oral absorbability compared to rat and mouse [1] | Tmax compared to rat and mouse [1] | bioavailability [2] [%]
C[C@@H]1OC(=O)NC1C(=O)N[C@@H](Cc1cscn1)C(=O)N1CCC[C@H]1C (stereo partly drawn) [compound (1)] | decreased absorbability | markedly delayed Tmax | –
CN1C(=O)C[C@@H](C(=O)N[C@@H](Cc2c[nH]cn2)C(=O)N2CCC[C@H]2C(N)=O)NC1=O [taltirelin] | – | – | 3.9
